According to patent publication US20110136666A1, “CHEMICAL COMPOUNDS” (SYNGENTA CROP PROTECTION, INC., priority 2008, published 2011):

Key:
Assay type in all cases: in vivo
[1] = test system: Alopecurus myosuroides (ALOMY); assay: Pre-emergence biological efficacy, glasshouse pot test; details: 312 h, after 13 days, 100=total damage, 0=no damage, read-out: Percentage damage caused to weed species ALOMY
Procedure: (§1) Seeds of Alopecurus myosuroides (ALOMY), Setaria faberi (SETFA), Echinochloa crus-galli (ECHCG), Solanum nigrum (SOLNI), Amaranthus retroflexus (AMARE) and Ipomea hederaceae (IPOHE) were sown in standard soil in pots. After cultivation for one day under controlled conditions in a glasshouse (at 24/16° C., day/night; 14 hours light; 65% humidity), the plants were sprayed with an aqueous spray solution derived from the formulation of the technical active ingredient in acetone/water (50:50) solution containing 0.5% Tween 20 (polyoxyethylene sorbitan monolaurate, CAS RN 9005-64-5) to give a final dose of 250 or 1000 g/ha of test compound.
(§2) The test plants were then grown under controlled conditions in the glasshouse (at 24/16° C., day/night; 14 hours light; 65% humidity) and watered twice daily. After 13 days the test was evaluated (100=total damage to plant; 0=no damage to plant).

[2] = test system: Amaranthus retroflexus (AMARE); assay: as above; details: 312 h, after 13 days, 100=total damage, 0=no damage, read-out: Percentage damage caused to weed species AMARE
Procedure: as §1, §2

[3] = test system: Echinochloa crus-galli (ECHCG); assay: as above; details: 312 h, after 13 days, 100=total damage, 0=no damage, read-out: Percentage damage caused to weed species ECHCG
Procedure: as §1, §2

[4] = test system: Ipomea hederaceae (IPOHE); assay: as above; details: Ipomoea hederacea, 312 h, after 13 days, 100=total damage, 0=no damage, read-out: Percentage damage caused to weed species IPOHE
Procedure: as §1, §2

[5] = test system: Setaria faberi (SETFA); assay: as above; details: 312 h, after 13 days, 100=total damage, 0=no damage, read-out: Percentage damage caused to weed species SETFA
Procedure: as §1, §2

[6] = test system: Solanum nigrum (SOLNI); assay: as above; details: 312 h, after 13 days, 100=total damage, 0=no damage, read-out: Percentage damage caused to weed species SOLNI
Procedure: as §1, §2

[7] = test system: Alopecurus myosuroides (ALOMY); assay: Post-emergence biological efficacy, glasshouse pot test; details: 312 h, after 13 days, 100=total damage, 0=no damage, read-out: Percentage damage caused to weed species ALOMY
Procedure: as §1, with “8 days” for “one day”
(§3) The test plants were then grown on under controlled conditions in a glasshouse (at 24/16° C., day/night; 14 hours light; 65% humidity) and watered twice daily. After 13 days the test was evaluated (100=total damage to plant; 0=no damage to plant).

[8] = test system: Amaranthus retroflexus (AMARE); assay: as above; details: 312 h, after 13 days, 100=total damage, 0=no damage, read-out: Percentage damage caused to weed species AMARE
Procedure: as §1, with “8 days” for “one day”
as §3

[9] = test system: Echinochloa crus-galli (ECHCG); assay: as above; details: 312 h, after 13 days, 100=total damage, 0=no damage, read-out: Percentage damage caused to weed species ECHCG
Procedure: as §1, with “8 days” for “one day”
as §3

[10] = test system: Ipomea hederaceae (IPOHE); assay: as above; details: Ipomoea hederacea, 312 h, after 13 days, 100=total damage, 0=no damage, read-out: Percentage damage caused to weed species IPONE
Procedure: as §1, with “8 days” for “one day”
as §3

[11] = test system: Setaria faberi (SETFA); assay: as above; details: 312 h, after 13 days, 100=total damage, 0=no damage, read-out: Percentage damage caused to weed species SETFA
Procedure: as §1, with “8 days” for “one day”
as §3

[12] = test system: Solanum nigrum (SOLNI); assay: as above; details: 312 h, after 13 days, 100=total damage, 0=no damage, read-out: Percentage damage caused to weed species SOLNI
Procedure: as §1, with “8 days” for “one day”
as §3

Compound | pest or weed control at 1000 g/ha [1] [%] | pest or weed control at 1000 g/ha [2] [%] | pest or weed control at 1000 g/ha [3] [%] | pest or weed control at 1000 g/ha [4] [%] | pest or weed control at 1000 g/ha [5] [%] | pest or weed control at 1000 g/ha [6] [%] | pest or weed control at 1000 g/ha [7] [%] | pest or weed control at 1000 g/ha [8] [%] | pest or weed control at 1000 g/ha [9] [%] | pest or weed control at 1000 g/ha [10] [%] | pest or weed control at 1000 g/ha [11] [%] | pest or weed control at 1000 g/ha [12] [%] | further results
COC(=O)c1nc(-c2ccc(OC)nc2)nc(N)c1Cl [Compound 2-155, 4-Amino-5-chloro-6-methoxycarbonyl-2-(2-methoxypyridin-5-yl)-pyrimidine] | 0 | 20 | 0 | 0 | 0 | 20 | 0 | 100 | 80 | 70 | 80 | 70 | –
COC(=O)c1nc(-c2cccnc2)nc(N)c1Cl [Compound 2-153, 4-Amino-5-chloro-6-methoxycarbonyl-2-pyridin-3-ylpyrimidine] | 0 | 0 | 0 | 0 | 0 | 0 | 0 | 0 | 0 | 0 | 0 | 0 | –
COC(=O)c1nc(-c2cc3ccccc3s2)nc(N)c1Cl [Compound 2-54, 4-Amino-2-(benzothiophen-2-yl)-5-chloro-6-methoxycarbonyl pyrimidine] | 20 | 70 | 70 | 0 | 20 | 20 | 0 | 70 | 70 | 80 | 50 | 40 | –
COC(=O)c1nc(-c2cc3cc(C)ccc3s2)nc(N)c1Cl [Compound 2-55, 4-Amino-5-chloro-6-methoxycarbonyl-2-(5-methylbenzothiophen-2-yl)-pyrimidine] | – | – | – | – | – | – | – | – | – | – | – | – | pest or weed control at 250 g/ha ([1]; 250 g/ha): 0%; pest or weed control at 250 g/ha ([2]; 250 g/ha): 10%; pest or weed control at 250 g/ha ([3]; 250 g/ha): 0%; pest or weed control at 250 g/ha ([4]; 250 g/ha): 10%; pest or weed control at 250 g/ha ([5]; 250 g/ha): 0%; pest or weed control at 250 g/ha ([6]; 250 g/ha): 0%; pest or weed control at 250 g/ha ([7]; 250 g/ha): 10%; pest or weed control at 250 g/ha ([8]; 250 g/ha): 70%; pest or weed control at 250 g/ha ([9]; 250 g/ha): 0%; pest or weed control at 250 g/ha ([10]; 250 g/ha): 40%; pest or weed control at 250 g/ha ([11]; 250 g/ha): 0%; pest or weed control at 250 g/ha ([12]; 250 g/ha): 30%
COC(=O)c1nc(-c2ccc(C)nc2F)nc(N)c1Cl [Compound 2-161, 4-Amino-5-chloro-2-(2-fluoro-6-methylpyridin-3-yl)-6-methoxycarbonyl pyrimidine] | 0 | 60 | 0 | 0 | 0 | 40 | 30 | 90 | 60 | 100 | 80 | 80 | –
